One experiment deals with T1, recombinant autotaxin (Homo sapiens, UniProt Q13822).
T1 construct: made in house; host or cells: Hi5 insect cells (baculovirus)
Put plainly: Autotaxin assay (Amplex Red fluorescence, LPC substrate). Format: biochemical. Conditions: percent of uninhibited control (100%) at 1E−05 M compound. The method, then:
Autotaxin activity is measured indirectly by means of Amplex Red Reagent. In this course, Amplex Red is measured as fluorogenic indicator for generated H2O2. Autotaxin converts substrate lysophosphatidylcholine (LPC) to phosphocholine and lysophosphatidylic acid (LPA). After the conversion phosphocholine is reacted with alkaline phosphatase to obtain inorganic phosphate and choline. During the next step choline is oxidized with choline oxidase to yield betaine, whereby H2O2 is generated. H2O2 reacts with Amplex Red Reagent in the presence of peroxidase (Horseradish peroxidase) in an 1:1 stochiometry and yields highly fluorescent resorufin. The generated fluorescence is measured in a reaction-dependent kinetic mode in order to enable subtraction of fluorescence signals of possible other fluorescent compounds that are not part of the reaction from total measured fluorescence.
1.5 μl of a standard solution or of the compounds of the invention are dissolved in 20 mM Hepes pH 7.2 with maximally 7.7% DMSO in individual concentrations. The resulting solution is pre-incubated together with 10 μl (16 ng) of highly purified recombinant autotaxin in a black 384-hole microtiter plate for 30 min at 22° C.
Thereafter, the reaction is started through the addition of 5 μl L-a-lysophosphatidyl-choline (LPC), whereby the final concentration of LPC is 75 μM. The mixture is incubated for 90 min. at 37° C. After the incubation Amplex Red Reagent, peroxidase (Horseradish peroxidase) and choline oxidase are added. The fluorescence is immediately measured at a wavelength of 612 nm with an excitation wavelength of 485 nm in a “Tecan Ultra multimode” fluorescence reader. The activity of autotaxin is indirectly calculated via the amount of detected generated H2O2.
For IC50 analysis, ten serial 1:3 dilutions starting at 30 μM for each compound were run in duplicates.
IC50 values were calculated on normalized data. For normalization, control wells were added to each assay plate and the signal of uninhibited control wells was set to 100%, whereas the signal inhibited by 500 μM C14 LPA, (Avanti Polar Lipids, Cat#857120P) was set to 0%. Curves were fitted and IC50 values calculated by the following model using proprietory analysis software: Y=Bottom+(100−Bottom)/(1+10^((Log IC50−X)*HillSlope))
Where X is the logarithm of concentration. Y is the response;
Y starts at Bottom and goes to Top with a sigmoid shape.
Protein: Recombinant autotaxin (baculoviral Hi5 expression)
Substrate: L-a-lysophosphatidyl choline (chicken egg); Avanti Polar Lipids #830071P
Standard: C14 LPA, Avanti Polar Lipids, Cat#857120P
Detection Reagent Amplex Red Reagent; Invitrogen #A12222; dissolved in 1.923 ml of DMSO peroxidase Type VI-A (horseradish), Sigma #P6782; dissolved in 7.45 ml of test buffer, Choline Oxidase; Sigma #C5896; dissolved in 2.47 ml test buffer
Detection Reagent Mix: 1:100 dilution of Amplex Red Regent in test buffer
Test buffer: 200 mM Tris-HCl, Merck, Cat #1.08219, pH 7.9; 0.1% BSA, lipid free, Roche Cat#775835
In the case of `O=C(NCc1ccc(Cl)cc1F)c1[nH]nc2c1CCN(C(=O)c1ccc3[nH]nnc3c1)C2` [Compound 46, 6-(1H-Benzotriazole-5-carbonyl)-4,5,6,7-tetrahydro-2H-pyrazolo[3,4-c]pyridine-3-carboxylic acid 4-chloro-2-fluoro-benzylamide], the “% CTRL (1E−05)” value is given as 76%.

The experiment is the same for the next values; noted with them: ten serial 1:3 dilutions starting at 30 μM, duplicates; 75 μM LPC; values given as upper bounds.
Take `O=C(NCCc1ccc(F)cc1)c1[nH]nc2c1CCN(C(=O)c1ccc3[nH]nnc3c1)C2` [Compound 47, 6-(1H-Benzotriazole-5-carbonyl)-4,5,6,7-tetrahydro-2H-pyrazolo[3,4-c]pyridine-3-carboxylic acid [2-(4-fluoro-phenyl)-ethyl]-amide]: the IC50 is less than 10 µM.

In the case of `O=C(Nc1ccc2c(c1)CCN(C(=O)c1ccc3[nH]nnc3c1)C2)OCc1cc(Cl)cc(Cl)c1` [Compound 48, [2-(1H-Benzotriazole-5-carbonyl)-1,2,3,4-tetrahydro-isoquinolin-6-yl]-carbamic acid 3,5-dichloro-benzyl ester], the IC50 is less than 10 µM. In the case of `O=C(NCc1ccc(SC(F)(F)F)cc1)c1[nH]nc2c1CCN(C(=O)c1ccc3[nH]nnc3c1)C2` [Compound 49, 6-(1H-Benzotriazole-5-carbonyl)-4,5,6,7-tetrahydro-2H-pyrazolo[3,4-c]pyridine-3-carboxylic acid 4-trifluoromethylsulfanyl-benzylamide], the IC50 was less than 30 µM.

As to `O=C(Nc1ccc2[nH]nnc2c1)c1n[nH]c2c1CCN(C(=O)OCc1ccc(C(F)(F)F)cc1)C2` [Compound 50, 3-(1H-Benzotriazol-5-ylcarbamoyl)-1,4,5,7-tetrahydro-pyrazolo[3,4-c]pyridine-6-carboxylic acid 4-trifluoromethyl-benzyl ester], the IC50 is less than 1 µM. Consider `O=C(NCc1ccc(F)c(Br)c1)c1[nH]nc2c1CCN(C(=O)c1ccc3[nH]nnc3c1)C2` [Compound 51, 6-(1H-Benzotriazole-5-carbonyl)-4,5,6,7-tetrahydro-2H-pyrazolo[3,4-c]pyridine-3-carboxylic acid 3-bromo-4-fluoro-benzylamide], for which the IC50 is less than 1 µM. Turning to `O=C(Nc1ccc2[nH]nnc2c1)c1[nH]nc2c1CCN(C(=O)OCc1cc(Cl)cc(Cl)c1)C2` [Compound 52, 3-(1H-Benzotriazol-5-ylcarbamoyl)-2,4,5,7-tetrahydro-pyrazolo[3,4-c]pyridine-6-carboxylic acid 3,5-dichloro-benzyl ester], the IC50 is less than 1 µM.

With `O=C(Nc1ccc2[nH]nnc2c1)c1[nH]nc2c1CCN(C(=O)OCc1cc(C(F)(F)F)cc(C(F)(F)F)c1)C2` [Compound 53, 3-(1H-Benzotriazol-5-ylcarbamoyl)-2,4,5,7-tetrahydro-pyrazolo[3,4-c]pyridine-6-carboxylic acid 3,5-bis-trifluoromethyl-benzyl ester], the IC50 was less than 1 µM. Turning to `O=C(Nc1ccc2[nH]nnc2c1)c1[nH]nc2c1CCN(C(=O)OCc1ccc(C(F)(F)F)c(Cl)c1)C2` [Compound 54, 3-(1H-Benzotriazol-5-ylcarbamoyl)-2,4,5,7-tetrahydro-pyrazolo[3,4-c]pyridine-6-carboxylic acid 3-chloro-4-trifluoromethyl-benzyl ester], the IC50 was less than 10 µM. On the same count and under the same terms, as for `O=C(Nc1ccc2[nH]nnc2c1)c1[nH]nc2c1CCN(C(=O)OCc1cccc(C(F)(F)F)c1)C2` [Compound 55, 3-(1H-Benzotriazol-5-ylcarbamoyl)-2,4,5,7-tetrahydro-pyrazolo[3,4-c]pyridine-6-carboxylic acid 3-trifluoromethyl-benzyl ester], the figure is less than 1 µM.

For `O=C(Nc1ccc2[nH]nnc2c1)c1[nH]nc2c1CCN(C(=O)OCc1ccc(SC(F)(F)F)cc1)C2` [Compound 56, 3-(1H-Benzotriazol-5-ylcarbamoyl)-2,4,5,7-tetrahydro-pyrazolo[3,4-c]pyridine-6-carboxylic acid 4-trifluoromethylsulfanyl-benzyl ester], the IC50 was less than 1 µM. Consider `O=C(Nc1ccc2[nH]nnc2c1)c1[nH]nc2c1CCN(C(=O)OCc1ccc(OC(F)(F)F)cc1)C2` [Compound 57, 3-(1H-Benzotriazol-5-ylcarbamoyl)-2,4,5,7-tetrahydro-pyrazolo[3,4-c]pyridine-6-carboxylic acid 4-trifluoromethoxy-benzyl ester], for which the IC50 was less than 10 µM. Still for that read-out and setting: as for `O=C(Nc1ccc2[nH]nnc2c1)c1[nH]nc2c1CCN(C(=O)OCc1ccc(OC(F)(F)F)c(Cl)c1)C2` [Compound 58, 3-(1H-Benzotriazol-5-ylcarbamoyl)-2,4,5,7-tetrahydro-pyrazolo[3,4-c]pyridine-6-carboxylic acid 3-chloro-4-trifluoromethoxy-benzyl ester], the figure is less than 1 µM; as for `COc1ccc(C2CCCN(C(=O)c3[nH]nc4c3CCN(C(=O)c3ccc5[nH]nnc5c3)C4)C2)cc1` (stereo not drawn) [Compound 59, (1H-Benzotriazol-5-yl)-{3-[3-(4-methoxy-phenyl)-piperidine-1-carbonyl]-2,4,5,7-tetrahydro-pyrazolo[3,4-c]pyridin-6-yl}-methanone], less than 30 µM; as for `O=C(NCc1ccc(OC(F)(F)F)cc1)c1[nH]nc2c1CCN(C(=O)c1ccc3[nH]nnc3c1)C2` [Compound 60, 6-(1H-Benzotriazole-5-carbonyl)-4,5,6,7-tetrahydro-2H-pyrazolo[3,4-c]pyridine-3-carboxylic acid 4-trifluoromethoxy-benzylamide], less than 30 µM.

`O=C(NCc1ccc(C(F)(F)F)cc1)c1[nH]nc2c1CCN(C(=O)c1ccc3[nH]nnc3c1)C2` [Compound 61, 6-(1H-Benzotriazole-5-carbonyl)-4,5,6,7-tetrahydro-2H-pyrazolo[3,4-c]pyridine-3-carboxylic acid 4-trifluoromethyl-benzylamide]: the IC50 is less than 10 µM.

`COc1ccc2c(c1)CCC(NC(=O)c1[nH]nc3c1CCN(C(=O)c1ccc4[nH]nnc4c1)C3)C2` (stereo not drawn) [Compound 62, 6-(1H-Benzotriazole-5-carbonyl)-4,5,6,7-tetrahydro-2H-pyrazolo[3,4-c]pyridine-3-carboxylic acid (6-methoxy-1,2,3,4-tetrahydro-naphthalen-2-yl)-amide]: the IC50 is less than 10 µM. In the case of `COC(=O)CC(NC(=O)c1[nH]nc2c1CCN(C(=O)c1ccc3[nH]nnc3c1)C2)c1ccc(C(C)(C)C)cc1` (stereo not drawn) [Compound 63, 3-{[6-(1H-Benzotriazole-5-carbonyl)-4,5,6,7-tetrahydro-2H-pyrazolo[3,4-c]pyridine-3-carbonyl]-amino}-3-(4-tert-butyl-phenyl)-propionic acid methyl ester], the IC50 was less than 30 µM.

For the origin of these results see patent US8497283B2, “Autotaxin inhibitors” (Merck Patent GmbH, priority 2009, dated 2013).
